From US20110117020A1, “IMAGING DENDRIMER NANOPROBES AND USES THEREOF” (THE TRUSTEES OF THE UNIVERSITY OF PENNSYLVANIA, priority 2008, published 2011) come the findings set out here.

Marks after values point to notes of the source that are not given here.

Data set [1] can be described thus: Optical absorption spectra (UV-Vis spectrophotometer). The class given is physicochemical. The conditions noted are these: for Absorption log e / Absorption λmax: Table I; for Absorption Q band / Absorption Q band Ig ε / Absorption Soret band / Absorption Soret band Ig ε: Table II. How it is done:
(§1) Quartz fluorometric cells (Starna, Inc, 1 cm optical path length) were used in optical experiments. Optical spectra were recorded on a Perkin-Elmer Lambda 35 UV-Vis spectrophotometer. Steady state fluorescence and phosphorescence measurements were performed on a SPEX Fluorolog-2 spectrofluorometer (Jobin-Yvon Horiba), equipped with an infra-red enhanced R2658P PMT (Hamamatsu). Emission spectra were obtained using solutions with absorption at the excitation maxima of approximately 0.05 OD. Quantum yields of emission of all the synthesized compounds were measured relative to the fluorescence of tetraphenylporphyrin (φfl=0:11 in deox. C6H6).

Data set [2] can be described thus: Steady state phosphorescence: emission maxima, quantum yields, lifetimes. The class given is physicochemical. The conditions noted are these: for Phosphorescence φ: PhCN, deoxygenated, relative to fluorescence of H2TPP in deoxygenated benzene. How it is done: as §1
[3] abbreviates: solution in PhCN, deoxygenated by Ar-bubbling.
[4] abbreviates: solution in PhCN, deoxygenated by Ar-bubbling, above 900 nm large experimental errors.

In the case of `O=C(O)c1cc(C(=O)O)cc(C2=C3N=C(C(c4cc(C(=O)O)cc(C(=O)O)c4)=c4c5cc6ccccc6cc5c5[n]4[Pt][n]4c2c2cc6ccccc6cc2c4C(c2cc(C(=O)O)cc(C(=O)O)c2)=C2N=C(C=5c4cc(C(=O)O)cc(C(=O)O)c4)c4cc5ccccc5cc42)c2cc4ccccc4cc23)c1` [Octacarboxytetra naphthoporphyrin Pt, Octacarboxytetra naphthoporphyrin], in data set [1] (first band), the Absorption log e is listed as 5.14 and the “Absorption λmax” value is recorded as 441 nm. In data set [1] (second band), the Absorption log e is reported as 5.28 and the “Absorption λmax” value was found to be 700 nm. Further, in data set [2] (Table I), the “Phosphorescence λmax” value is 923 nm, the τ0 was determined as 12 μs and the φp amounted to 0.06.

For `CCCCOC(=O)c1cc(C(=O)OCCCC)cc(C2=C3C=CC(=N3)C(c3cc(C(=O)OCCCC)cc(C(=O)OCCCC)c3)=c3ccc4[n]3[Pd][n]3c2ccc3C(c2cc(C(=O)OCCCC)cc(C(=O)OCCCC)c2)=C2C=CC(=N2)C=4c2cc(C(=O)OCCCC)cc(C(=O)OCCCC)c2)c1` [Pd-1-OBu], in data set [1], the “Absorption Q band” value turned out to be 526 nm, the “Absorption Q band Ig ε” value is given as 4.57, the “Absorption Soret band” value was found to be 422 nm and the “Absorption Soret band Ig ε” value was determined as 5.61. The “Phosphorescence φ” value in data set [2] is on record as 0.08. Besides, in data set [2] (setting [3]), the “Phosphorescence τ0” value was 504 μs. Also, the “Phosphorescence λmax” value in data set [2] (setting [4]) was found to be 696 nm.

Regarding `O=C(O)c1cc(C(=O)O)cc(C2=C3N=C(C(c4cc(C(=O)O)cc(C(=O)O)c4)=c4c5ccccc5c5[n]4[Pd][n]4c2c2ccccc2c4C(c2cc(C(=O)O)cc(C(=O)O)c2)=C2N=C(C=5c4cc(C(=O)O)cc(C(=O)O)c4)c4ccccc42)c2ccccc23)c1`, in data set [1] (first band), the Absorption log e amounted to 5.46 and the “Absorption λmax” value is recorded as 446 nm. Also, in data set [1] (second band), the Absorption log e came out at 5.00 and the “Absorption λmax” value is 635 nm. For the same compound, in data set [2] (Table I), the “Phosphorescence λmax” value came to 816 nm, the τ0 was found to be 210 μs and the φp worked out at 0.09.

Regarding `CCCCOC(=O)c1cc(C(=O)OCCCC)cc(C2=C3N=C(C(c4cc(C(=O)OCCCC)cc(C(=O)OCCCC)c4)=c4c5cc6ccccc6cc5c5[n]4[Pd][n]4c2c2cc6ccccc6cc2c4C(c2cc(C(=O)OCCCC)cc(C(=O)OCCCC)c2)=C2N=C(C=5c4cc(C(=O)OCCCC)cc(C(=O)OCCCC)c4)c4cc5ccccc5cc42)c2cc4ccccc4cc23)c1` [Pd-3-OBu], in data set [1], the “Absorption Q band” value was 716 nm, the “Absorption Q band Ig ε” value stood at 5.29, the “Absorption Soret band” value came out at 458 nm and the “Absorption Soret band Ig ε” value is on record as 5.29. For the same compound, the “Phosphorescence φ” value in data set [2] worked out at 0.02. In addition, the “Phosphorescence τ0” value in data set [2] (setting [3]) is 52 μs. In data set [2] (setting [4]), the “Phosphorescence λmax” value is 961 [c] nm.

Regarding `O=C(O)c1cc(C(=O)O)cc(C2=C3C=CC(=N3)C(c3cc(C(=O)O)cc(C(=O)O)c3)=c3ccc4[n]3[Pt][n]3c2ccc3C(c2cc(C(=O)O)cc(C(=O)O)c2)=C2C=CC(=N2)C=4c2cc(C(=O)O)cc(C(=O)O)c2)c1` [Octacarboxyporphyrin Pt, Octacarboxyporphyrin], in data set [1] (first band), the Absorption log e was found to be 5.54 and the “Absorption λmax” value was 406 nm. Also, in data set [1] (second band), the Absorption log e turned out to be 4.50 and the “Absorption λmax” value was found to be 512 nm. In data set [2] (Table I), this compound returned a τ0 of 53 μs and a φp of 0.24.

For the compound `O=C(O)c1cc(C(=O)O)cc(C2=C3N=C(C(c4cc(C(=O)O)cc(C(=O)O)c4)=c4c5ccccc5c5[n]4[Pt][n]4c2c2ccccc2c4C(c2cc(C(=O)O)cc(C(=O)O)c2)=C2N=C(C=5c4cc(C(=O)O)cc(C(=O)O)c4)c4ccccc42)c2ccccc23)c1`, in data set [1] (first band), the Absorption log e stood at 5.23 and the “Absorption λmax” value is listed as 433 nm. In addition, in data set [1] (second band), the Absorption log e turned out to be 5.00 and the “Absorption λmax” value is recorded as 622 nm. Moreover, in data set [2] (Table I), the “Phosphorescence λmax” value is 791 nm, the τ0 was found to be 41 μs and the φp turned out to be 0.30.
